Measured values taken from patent US20090017103A1, “Antisense oligonucleotides for prevention of metastasis formation of cancer cells” (priority 2003, published 2009).

Experiments:
[1] = system: osteopontin; assay: Western blot of osteopontin expression after exposure to ASOs; assay type: cell-based, human; conditions: for osteopontin expression in relation to untreated control (100%): MDA-MB231, lipofectamine, 10 μM; for reduction of osteopontin expression: MDA-MB-231
[2] = system: bone sialoprotein II; assay: Western blot of bone sialoprotein II expression after exposure to ASOs; assay type: cell-based, human; conditions: for bone sialoprotein II expression in relation to untreated control (100%): 10 μM

Question: Which “osteopontin expression in relation to untreated control (100%)” value ([1]; single exposure) does the source give for “5′-CTAACTTAAAAAACAAAAGA-3′ (antisense CTAACTTAAAAAACAAAAGA; all phosphorothioate, sugars by position and methylation of C not given here) [ASO-OPN-4]” here?
Answer: 16%

Question: And the “osteopontin expression in relation to untreated control (100%)” value ([1]; twofold exposure)?
Answer: 23%

Question: What about the “reduction of osteopontin expression” value ([1]; repeated ASO exposure) of the same substance?
Answer: 77%

Question: What about the “reduction of osteopontin expression” value ([1]; single exposure) of the same substance?
Answer: 84%

Question: And the “maximum inhibition of protein expression / suppression of protein level (OPN)” value ([1]; MDA-MB-231 cells, Western blot)?
Answer: 85%

Question: For “5′-GCT-TTC-TTC-GTT-TTC-ATT-TC-3′ [ASO-BSPII-6]”, which “bone sialoprotein II expression in relation to untreated control (100%)” value (from here on “bone sialoprotein II expression … (100%)”) ([2]; MDA-MB231, single exposure, electroporation) is on record?
Answer: 16%

Question: What about the “bone sialoprotein II expression … (100%)” value ([2]; MDA-MB231, single exposure, lipofectamine) of the same substance?
Answer: 33%

Question: And the “bone sialoprotein II expression … (100%)” value ([2]; MDA-MB231, twofold exposure, lipofectamine)?
Answer: 15%

Question: And the “bone sialoprotein II expression … (100%)” value ([2]; MDA-MB231^F (growing without FBS), single exposure, lipofectamine)?
Answer: 79%

Question: And the “bone sialoprotein II expression … (100%)” value ([2]; MDA-MB435s, single exposure, lipofectamine)?
Answer: 0%

Question: And the “maximum inhibition of protein expression / suppression of protein level (BSP II)” value ([2]; MDA-MB-231 cells, Western blot)?
Answer: 75%

Question: What about the “reduction of bone sialoprotein expression” value ([2]; single exposure) of the same substance?
Answer: 84%

Question: And the “reduction of bone sialoprotein protein level” value ([2]; twofold exposure)?
Answer: 81%
